Converted amounts (≈) assume the structure as drawn. Where two headings read alike, the source gives them in different places.
Legend:
Experiment in all cases: MIC, standard agar-dilution assay
Format in all cases: cell-based
[1] = test system: Staphylococcus epidermidis 222
[2] = test system: Streptococcus sp. group D 2041; conditions: Streptococcus, read-out: minimal inhibitory concentration (MIC)
[3] = test system: Staphylococcus epidermidis EPI1; conditions: EPI1, read-out: minimal inhibitory concentration (MIC)
Excerpt: (§1) In addition to excellent in vitro activity against erythromycin-sensitive bacteria, several members of this new series have shown in vitro activity against erythromycin-resistant strains. These include strains which are inducibly-resistant to erythromycin (S. aureus V41 and X400 and S. epidermidis EPI1) and even strains which are constitutively-resistant (S. epidermidis 270).

[4] = test system: Staphylococcus aureus V41; conditions: Staphylococcus aureus, V41, penicillin-resistant strain, inducibly erythromycin-resistant, read-out: minimal inhibitory concentration (MIC)
Excerpt: as §1

[5] = test system: Staphylococcus aureus X400; conditions: Staphylococcus aureus, X400, methicillin-resistant strain, inducibly erythromycin-resistant, read-out: minimal inhibitory concentration (MIC)
Excerpt: as §1

[6] = test system: Staphylococcus aureus X1.1; conditions: Staphylococcus aureus, X1.1, read-out: minimal inhibitory concentration (MIC)
[7] = test system: Streptococcus pyogenes C203; conditions: Streptococcus pyogenes
[8] = test system: Streptococcus sp. group D X66; conditions: Streptococcus, read-out: minimal inhibitory concentration (MIC)
[9] = test system: Streptococcus pneumoniae Park I; conditions: Streptococcus pneumoniae, read-out: minimal inhibitory concentration (MIC)
[10] = test system: Haemophilus influenzae C.L.; conditions: Haemophilus influenzae, read-out: minimal inhibitory concentration (MIC)
Escherichia coli EC14 = conditions: Escherichia coli
[11] = test system: Klebsiella pneumoniae X68; conditions: Klebsiella pneumoniae
[12] = test system: Staphylococcus aureus S13E; conditions: Staphylococcus aureus, S13E, read-out: minimal inhibitory concentration (MIC)
[13] = test system: Staphylococcus epidermidis 270; conditions: Staphylococcus epidermidis, 270; Table IV; constitutively erythromycin-resistant; read-out: minimal inhibitory concentration (MIC)
Excerpt: as §1

[14] = test system: Haemophilus influenzae 76; conditions: Haemophilus influenzae, 76; Table IV; ampicillin-resistant strain; read-out: minimal inhibitory concentration (MIC)
[15] = Staphylococcus epidermidis, 222, read-out: minimal inhibitory concentration (MIC)
[16] = C203, read-out: minimal inhibitory concentration (MIC)
[17] = X68, Table IV, agar dilution, read-out: minimal inhibitory concentration (MIC)
[18] = EC14, Table IV, agar dilution, read-out: minimal inhibitory concentration (MIC)

Row | Compound | MIC [1, 15] [mg/L] | MIC [2] [mg/L] | MIC [3] [mg/L] | MIC ([4]; Table V) [mg/L] | MIC ([5]; Table V) [mg/L] | MIC [6] [mg/L] | MIC [7, 16] [mg/L] | MIC [8] [mg/L] | MIC [9] [mg/L] | MIC [10] [mg/L] | MIC [12] [mg/L] | MIC [11, 17] [mg/L] | MIC ([4]; Table IV) [mg/L] | MIC ([5]; Table IV) [mg/L] | MIC [13] [mg/L] | MIC [14] [mg/L] | MIC ([9]; Table IV, agar dilution) [mg/L] | MIC (Escherichia coli EC14; [18]) [mg/L] | further results
1 | CC[C@H]1OC(=O)[C@H](C)[C@@H](O[C@H]2C[C@@](C)(OC)[C@@H](O)[C@H](C)O2)[C@H](C)[C@@H](O[C@@H]2O[C@H](C)C[C@H](N(C)C)[C@H]2O)[C@](C)(O)C[C@@H](C)[C@H]2[C@H](C)[C@@H](OCN2C2CCCC2)[C@]1(C)O [Compound 60, 9-Deoxo-9-(cyclopentylamino)-9,11(N,O)-cyclic Methylene Adduct of Erythromycin] | 1 (≈ 1.23 µM) | 8 (≈ 9.81 µM) | > 128 | > 128 | > 128 | 1 (≈ 1.23 µM) | 0.125 (≈ 0.153 µM) | 0.5 (≈ 0.613 µM) | 0.06 (≈ 0.0736 µM) | – | – | – | – | – | – | – | – | – | –
2 | CC[C@H]1OC(=O)[C@H](C)[C@@H](O[C@H]2C[C@@](C)(OC)[C@@H](O)[C@H](C)O2)[C@H](C)[C@@H](O[C@@H]2O[C@H](C)C[C@H](N(C)C)[C@H]2O)[C@](C)(O)C[C@@H](C)[C@H](N2CCCCC2)[C@H](C)[C@@H](O)[C@]1(C)O [Compound 72, 9-Deoxo-9-(1-piperidinyl)erythromycin] | 8 (≈ 9.96 µM) | 128 (≈ 159 µM) | > 128 | > 128 | > 128 | 16 (≈ 19.9 µM) | 1 (≈ 1.25 µM) | – | 1 (≈ 1.25 µM) | 2 (≈ 2.49 µM) | – | – | – | – | – | – | – | – | MIC (Escherichia coli EC14; EC14, Table V, agar dilution, read-out: minimal inhibitory concentration (MIC)): > 128 mg/L; MIC ([11]; X68, Table V, agar dilution, read-out: minimal inhibitory concentration (MIC)): > 128 mg/L
3 | CC[C@H]1OC(=O)[C@H](C)[C@@H](O[C@H]2C[C@@](C)(OC)[C@@H](O)[C@H](C)O2)[C@H](C)[C@@H](O[C@@H]2O[C@H](C)C[C@H](N(C)C)[C@H]2O)[C@](C)(O)C[C@@H](C)[C@H](NCCOC)[C@H](C)[C@@H](O)[C@]1(C)O [Compound 31, 9-Deoxo-9-[(2-Methoxyethyl)amino]erythromycin] | – | 8 (≈ 10.1 µM) | – | – | – | 0.5 (≈ 0.63 µM) | 0.06 (≈ 0.0757 µM) | – | – | 0.5 (≈ 0.63 µM) | 0.5 (≈ 0.63 µM) | 32 (≈ 40.4 µM) | > 128 | > 128 | > 128 | 2 (≈ 2.52 µM) | 0.03 (≈ 0.0378 µM) | – | MIC (Escherichia coli EC14; EC14, read-out: minimal inhibitory concentration (MIC)): 16 mg/L (≈ 20.2 µM); MIC ([1]; Staphylococcus epidermidis, 222, Table IV, agar dilution, read-out: minimal inhibitory concentration (MIC)): 0.25 mg/L (≈ 0.315 µM); MIC ([8]; Table IV, agar dilution): 0.125 mg/L (≈ 0.158 µM)
4 | CCCN[C@@H]1[C@H](C)[C@@H](O)[C@@H](C)[C@@H](CC)OC(=O)[C@H](C)[C@@H](O[C@H]2C[C@@](C)(OC)[C@@H](O)[C@H](C)O2)[C@H](C)[C@@H](O[C@@H]2O[C@H](C)C[C@H](N(C)C)[C@H]2O)[C@](C)(O)C[C@H]1C [Compound 38] | 0.5 (≈ 0.657 µM) | 2 (≈ 2.63 µM) | – | – | – | 0.5 (≈ 0.657 µM) | 0.125 (≈ 0.164 µM) | 0.125 (≈ 0.164 µM) | 0.125 (≈ 0.164 µM) | 2 (≈ 2.63 µM) | 1 (≈ 1.31 µM) | – | 8 (≈ 10.5 µM) | 64 (≈ 84.1 µM) | > 128 | 4 (≈ 5.26 µM) | – | 64 (≈ 84.1 µM) | MIC ([11]; X68, read-out: minimal inhibitory concentration (MIC)): 128 mg/L (≈ 168 µM)
5 | CCCCCCCCCCN[C@@H]1[C@H](C)[C@@H](O)[C@@H](C)[C@@H](CC)OC(=O)[C@H](C)[C@@H](O[C@H]2C[C@@](C)(OC)[C@@H](O)[C@H](C)O2)[C@H](C)[C@@H](O[C@@H]2O[C@H](C)C[C@H](N(C)C)[C@H]2O)[C@](C)(O)C[C@H]1C [Compound 41] | 0.5 (≈ 0.582 µM) | – | – | – | – | 2 (≈ 2.33 µM) | – | 0.5 (≈ 0.582 µM) | – | – | 1 (≈ 1.16 µM) | > 128 | 4 (≈ 4.66 µM) | 4 (≈ 4.66 µM) | 8 (≈ 9.31 µM) | 4 (≈ 4.66 µM) | 0.03 (≈ 0.0349 µM) | > 128 | MIC ([10]; Table IV, ampicillin-sensitive strain): 8 mg/L (≈ 9.31 µM); MIC ([2]; Table IV, agar dilution): 4 mg/L (≈ 4.66 µM); MIC ([7]; C203, Table IV, agar dilution, read-out: minimal inhibitory concentration (MIC)): 0.03 mg/L (≈ 0.0349 µM)

From patent US5110800A, “Derivatives of erythromycylamine” (Eli Lilly and Company, priority 1989, dated 1992)
